Measured values from ChEMBL document CHEMBL1201862, “PubChem BioAssay data set” (2004).
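Exposure lasted 48 hours, with cells grown in 96-well plates and compounds tested at five concentrations. At the GI50, growth is halved.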 Active and inactive are the calls of the source. No stated cut-off is given here; in the data, active = GI50 up to about 1.1 µM and inactive = higher.

How the values were obtained:
Assay in all cases: NCI-60 cell line screen, 48 h
786-0 = test system: 786-0
ACHN = test system: ACHN
HCC 2998 = test system: HCC 2998
HOP-62 = test system: HOP-62
IGROV-1 = test system: IGROV-1
K562 = test system: K562
LOX IMVI = test system: LOX IMVI
NCI-H226 = test system: NCI-H226
OVCAR-5 = test system: OVCAR-5
SF-268 = test system: SF-268
SF-295 = test system: SF-295
SF-539 = test system: SF-539
SK-MEL-5 = test system: SK-MEL-5
U-251 = test system: U-251
UACC-62 = test system: UACC-62

Row | Compound | GI50 (786-0) | GI50 (ACHN) | GI50 (HCC 2998) | GI50 (HOP-62) | GI50 (IGROV-1) | GI50 (K562) | GI50 (LOX IMVI) | GI50 (NCI-H226) | GI50 (OVCAR-5) | GI50 (SF-268) | GI50 (SF-295) | GI50 (SF-539) | GI50 (SK-MEL-5) | GI50 (U-251) | GI50 (UACC-62)
1 | O=C(/C=C(\O)C(=O)O)/C=C(\O)c1ccccc1Cl | > 100 µM (inactive) | > 100 µM (inactive) | > 100 µM (inactive) | > 100 µM (inactive) | > 100 µM (inactive) | > 100 µM (inactive) | > 100 µM (inactive) | > 100 µM (inactive) | > 100 µM (inactive) | > 100 µM (inactive) | > 100 µM (inactive) | > 100 µM (inactive) | > 100 µM (inactive) | > 100 µM (inactive) | > 100 µM (inactive)
2 | COc1ccc(/C=C2\CCCC(C(NO)c3ccc(OC)cc3)C2=NO)cc1 (configuration not stated) | 29.2 µM (inactive) | 41.6 µM (inactive) | 61.2 µM (inactive) | 98.9 µM (inactive) | 33.9 µM (inactive) | 35.4 µM (inactive) | – | – | – | 68.2 µM (inactive) | 55.6 µM (inactive) | 27.5 µM (inactive) | 20 µM (inactive) | 62.5 µM (inactive) | 53 µM (inactive)
3 | Cc1ccc2nc3cc(C)c(=O)cc-3sc2c1 | > 100 µM (inactive) | 57.7 µM (inactive) | > 100 µM (inactive) | > 100 µM (inactive) | > 100 µM (inactive) | 13.6 µM (inactive) | – | 73.1 µM (inactive) | > 100 µM (inactive) | 81.1 µM (inactive) | 94.2 µM (inactive) | > 100 µM (inactive) | 44.9 µM (inactive) | 75 µM (inactive) | 28.7 µM (inactive)
4 | CC(=O)O[C@H]1C(=O)[C@@]2(C)C(C(OC(=O)c3ccccc3)[C@]3(O)CC(OC(=O)C(O)C(NC(=O)c4ccc(C(F)(F)F)cc4)c4ccccc4)C(C)=C1C3(C)C)[C@]1(OC(C)=O)CO[C@@H]1C[C@@H]2O (some centres not stated) | 0.64 µM (active) | 1.9 µM (inactive) | 0.101 µM (active) | 0.0989 µM (active) | 0.183 µM (active) | 0.108 µM (active) | 0.156 µM (active) | 0.0977 µM (active) | 0.158 µM (active) | 0.157 µM (active) | 0.239 µM (active) | 0.166 µM (active) | 0.0942 µM (active) | 0.156 µM (active) | 0.0723 µM (active)
5 | O=C(O)Cc1cc(=O)oc2cc(O)c(Cl)cc12 | > 100 µM (inactive) | > 100 µM (inactive) | > 100 µM (inactive) | > 100 µM (inactive) | > 100 µM (inactive) | > 100 µM (inactive) | > 100 µM (inactive) | > 100 µM (inactive) | > 100 µM (inactive) | > 100 µM (inactive) | > 100 µM (inactive) | > 100 µM (inactive) | > 100 µM (inactive) | > 100 µM (inactive) | > 100 µM (inactive)
6 | CC/C(CC(=O)CCC(=O)Nc1ccc(C)c(C)c1)=N\NC(=O)C(N)=O | > 100 µM (inactive) | > 100 µM (inactive) | – | > 100 µM (inactive) | > 100 µM (inactive) | > 100 µM (inactive) | – | > 100 µM (inactive) | > 100 µM (inactive) | > 100 µM (inactive) | > 100 µM (inactive) | > 100 µM (inactive) | > 100 µM (inactive) | > 100 µM (inactive) | > 100 µM (inactive)
7 | Cc1c(N2CCN(C)CC2)nc2ccc(Cl)cc2c1-c1ccccc1 | 14.4 µM (inactive) | 22 µM (inactive) | > 10 µM (inactive) | 18.2 µM (inactive) | – | 14.5 µM (inactive) | 14.7 µM (inactive) | – | – | 29.4 µM (inactive) | 17.4 µM (inactive) | 17.6 µM (inactive) | 15.4 µM (inactive) | 17.3 µM (inactive) | 15.7 µM (inactive)
8 | O=S(=O)(NCn1ccc2ccccc21)c1ccccc1 | > 100 µM (inactive) | 97.5 µM (inactive) | > 100 µM (inactive) | > 100 µM (inactive) | > 100 µM (inactive) | > 100 µM (inactive) | 66.5 µM (inactive) | > 100 µM (inactive) | > 100 µM (inactive) | > 57.8 µM (inactive) | > 100 µM (inactive) | > 100 µM (inactive) | > 100 µM (inactive) | > 100 µM (inactive) | > 73.8 µM (inactive)
9 | Cc1ccc(NC(=O)CC(=O)n2nc(-c3ccccc3)c(/N=N\c3ccccc3[N+](=O)[O-])c2-c2ccccc2)cc1 | 28.4 µM (inactive) | 89.3 µM (inactive) | > 100 µM (inactive) | 82.2 µM (inactive) | > 100 µM (inactive) | > 100 µM (inactive) | 93.5 µM (inactive) | – | > 100 µM (inactive) | 51.2 µM (inactive) | 29 µM (inactive) | 37.2 µM (inactive) | 57.5 µM (inactive) | 52.5 µM (inactive) | > 100 µM (inactive)
10 | COP(=O)(OC)/C(=N\Nc1ccc([N+](=O)[O-])cc1)NCc1ccccc1 | 34.3 µM (inactive) | 28 µM (inactive) | 62.5 µM (inactive) | 23.6 µM (inactive) | 30.8 µM (inactive) | 27.5 µM (inactive) | – | – | 40.3 µM (inactive) | 23.7 µM (inactive) | 25.8 µM (inactive) | 17.7 µM (inactive) | 17.5 µM (inactive) | 23.4 µM (inactive) | 28 µM (inactive)
11 | CS(=O)(=O)N(CCC#N)c1ccc(C=O)cc1 | > 100 µM (inactive) | > 100 µM (inactive) | > 100 µM (inactive) | 97.9 µM (inactive) | > 100 µM (inactive) | > 100 µM (inactive) | > 100 µM (inactive) | > 100 µM (inactive) | > 100 µM (inactive) | > 100 µM (inactive) | > 100 µM (inactive) | > 100 µM (inactive) | > 100 µM (inactive) | > 100 µM (inactive) | > 100 µM (inactive)
12 | CC(=O)/C=C\C1CC2C=CC1C2 (configuration not stated) | 43.1 µM (inactive) | 79.3 µM (inactive) | 24.3 µM (inactive) | 92.3 µM (inactive) | 81.3 µM (inactive) | 21.6 µM (inactive) | 14.1 µM (inactive) | – | 53.3 µM (inactive) | 25.8 µM (inactive) | 31 µM (inactive) | 37.4 µM (inactive) | 57.9 µM (inactive) | 45.4 µM (inactive) | 58.3 µM (inactive)
13 | O=C1NC2C(=O)N(Cc3ccccc3)C(=O)C2N1 (configuration not stated) | > 100 µM (inactive) | > 100 µM (inactive) | > 100 µM (inactive) | > 100 µM (inactive) | > 100 µM (inactive) | > 100 µM (inactive) | > 100 µM (inactive) | > 100 µM (inactive) | > 100 µM (inactive) | > 100 µM (inactive) | > 100 µM (inactive) | > 100 µM (inactive) | > 100 µM (inactive) | > 100 µM (inactive) | > 100 µM (inactive)
14 | CC1CC(C)C2OC2(C)C[C@H](C)C(=O)NC(C)C(=O)N(C)[C@H](Cc2c(Br)[nH]c3ccccc23)C(=O)N[C@@H](c2ccc(O)cc2)CC(=O)O1 (some centres not stated) | 1.43 µM (inactive) | 2.16 µM (inactive) | 0.11 µM (active) | 0.33 µM (active) | 0.272 µM (active) | 0.703 µM (active) | 0.0466 µM (active) | 0.373 µM (active) | 0.824 µM (active) | 0.336 µM (active) | 1.22 µM (inactive) | 0.111 µM (active) | 0.0933 µM (active) | 0.0404 µM (active) | 2.5 µM (inactive)
15 | NN=C1/C(=C\c2ccccc2)CCC/C1=C/c1ccccc1 | 39.5 µM (inactive) | 27.4 µM (inactive) | 35.6 µM (inactive) | 32.8 µM (inactive) | 39.1 µM (inactive) | 20.4 µM (inactive) | 26.2 µM (inactive) | – | 94 µM (inactive) | 34.3 µM (inactive) | 45.3 µM (inactive) | 24.4 µM (inactive) | – | 34.9 µM (inactive) | 40.3 µM (inactive)
16 | O=c1[nH]c(C2CCCCC2)nc2cc(Cl)ccc12 | 70 µM (inactive) | > 100 µM (inactive) | > 100 µM (inactive) | – | > 100 µM (inactive) | > 100 µM (inactive) | – | > 100 µM (inactive) | > 100 µM (inactive) | > 100 µM (inactive) | 92.7 µM (inactive) | > 100 µM (inactive) | > 100 µM (inactive) | > 100 µM (inactive) | > 100 µM (inactive)
17 | CC(=O)Nc1ccccc1-c1nc2ccccc2nc1C | > 100 µM (inactive) | > 100 µM (inactive) | – | > 100 µM (inactive) | > 100 µM (inactive) | > 100 µM (inactive) | > 100 µM (inactive) | > 100 µM (inactive) | > 100 µM (inactive) | > 100 µM (inactive) | > 100 µM (inactive) | > 100 µM (inactive) | > 100 µM (inactive) | > 100 µM (inactive) | > 100 µM (inactive)
18 | COc1c(NC(C)=O)cc(C)cc1NC(C)=O | > 100 µM (inactive) | > 100 µM (inactive) | > 100 µM (inactive) | > 100 µM (inactive) | – | > 100 µM (inactive) | > 100 µM (inactive) | – | – | > 100 µM (inactive) | > 100 µM (inactive) | > 100 µM (inactive) | > 100 µM (inactive) | > 100 µM (inactive) | > 100 µM (inactive)
19 | Cc1nc(C(N)=O)c(N)n1CCN1CCN(C(=O)CCCCCCCCCCNC2NC=Nc3[nH]cnc32)CC1 (configuration not stated) | > 100 µM (inactive) | 29.4 µM (inactive) | > 100 µM (inactive) | 91.6 µM (inactive) | 52.6 µM (inactive) | 13.2 µM (inactive) | 33.1 µM (inactive) | – | > 100 µM (inactive) | 41.7 µM (inactive) | 41.1 µM (inactive) | > 100 µM (inactive) | – | > 100 µM (inactive) | 29.8 µM (inactive)
